Measured values from the NIST ThermoML archive (doi:10.1021/acs.jced.8b00132).
Several values for one entry are separate records, joined by “and”; a condition that tells them apart may be missing. Equal values may be shown once. Numbers after ± are expanded uncertainties.

In the case of `O=C(C(F)(F)C(F)(F)F)C(F)(C(F)(F)F)C(F)(F)F` [dodecafluoro-2-methylpentan-3-one], the thermal conductivity (433.25 K, 43 kPa, Gas, hot wire) is reported as 0.02108 ± 0.00099 W/m/K, the thermal conductivity (433.25 K, 156 kPa, Gas, hot wire) is reported as 0.02107 ± 0.00099 W/m/K and the thermal conductivity (433.27 K, 1298 kPa, Gas, transient hot wire) is reported as 0.02415 ± 0.00082 W/m/K. For the same compound, the thermal conductivity (433.28 K, 371 kPa, Gas, hot wire) was 0.0228 ± 0.0011 W/m/K and 0.02281 ± 0.0011 W/m/K, the thermal conductivity (433.28 K, 922 kPa, Gas, transient hot wire) was 0.02221 ± 0.0014 W/m/K and the thermal conductivity (433.28 K, 49421 kPa, Liquid, transient hot wire) was 0.0643 ± 0.0013 W/m/K. It also gave a thermal conductivity (433.29 K, 49444 kPa, Liquid, transient hot wire) of 0.06433 ± 0.0013 W/m/K, a thermal conductivity (433.3 K, 9673 kPa, Liquid, transient hot wire) of 0.04596 ± 0.00096 W/m/K and a thermal conductivity (433.3 K, 22710 kPa, Liquid, transient hot wire) of 0.05348 ± 0.0011 W/m/K. The thermal conductivity (433.31 K, 9675 kPa, Liquid, transient hot wire) was 0.04592 ± 0.00096 W/m/K, the thermal conductivity (433.35 K, 1138 kPa, Gas, transient hot wire) was 0.02299 ± 0.00076 W/m/K and the thermal conductivity (433.36 K, 15082 kPa, Liquid, transient hot wire) was 0.04913 ± 0.001 W/m/K. The thermal conductivity (433.36 K, 22714 kPa, Liquid, transient hot wire) was 0.0536 ± 0.0011 W/m/K, the thermal conductivity (433.37 K, 162 kPa, Gas, hot wire) was 0.02126 ± 0.001 W/m/K and the thermal conductivity (433.37 K, 1138 kPa, Gas, transient hot wire) was 0.02295 ± 0.00076 W/m/K. The thermal conductivity (433.37 K, 15085 kPa, Liquid, transient hot wire) was 0.04954 ± 0.001 W/m/K, the thermal conductivity (433.38 K, 43 kPa, Gas, hot wire) was 0.02108 ± 0.00099 W/m/K and the thermal conductivity (433.38 K, 159 kPa, Gas, hot wire) was 0.02129 ± 0.001 W/m/K. For the same compound, the thermal conductivity (433.38 K, 6166 kPa, Liquid, transient hot wire) was 0.04304 ± 0.0009 W/m/K, the thermal conductivity (433.39 K, 43 kPa, Gas, hot wire) was 0.02105 ± 0.00099 W/m/K and the thermal conductivity (433.39 K, 6163 kPa, Liquid, transient hot wire) was 0.04307 ± 0.0009 W/m/K. It also gave a thermal conductivity (433.41 K, 34187 kPa, Liquid, transient hot wire) of 0.05868 ± 0.0012 W/m/K, a thermal conductivity (433.43 K, 922 kPa, Gas, transient hot wire) of 0.02216 ± 0.0014 W/m/K and a thermal conductivity (433.43 K, 34200 kPa, Liquid, transient hot wire) of 0.05865 ± 0.0012 W/m/K. It also gave a thermal conductivity (433.44 K, 922 kPa, Gas, transient hot wire) of 0.02224 ± 0.0014 W/m/K, a thermal conductivity (433.45 K, 3945 kPa, Liquid, transient hot wire) of 0.04079 ± 0.00086 W/m/K and a thermal conductivity (433.46 K, 3946 kPa, Liquid, transient hot wire) of 0.04082 ± 0.00086 W/m/K. The thermal conductivity (433.49 K, 9685 kPa, Liquid, transient hot wire) was 0.046 ± 0.00096 W/m/K, the thermal conductivity (433.5 K, 375 kPa, Gas, transient hot wire) was 0.02215 ± 0.0014 W/m/K and the thermal conductivity (433.5 K, 9681 kPa, Liquid, transient hot wire) was 0.04597 ± 0.00096 W/m/K. The thermal conductivity (433.51 K, 377 kPa, Gas, transient hot wire) was 0.02227 ± 0.0014 W/m/K, the thermal conductivity (433.52 K, 1139 kPa, Gas, transient hot wire) was 0.02308 ± 0.00077 W/m/K and 0.02311 ± 0.00077 W/m/K and the thermal conductivity (433.53 K, 654 kPa, Gas, transient hot wire) was 0.02193 ± 0.0014 W/m/K. For the same compound, the thermal conductivity (433.53 K, 655 kPa, Gas, transient hot wire) was 0.02205 ± 0.0014 W/m/K, the thermal conductivity (433.55 K, 15079 kPa, Liquid, transient hot wire) was 0.04951 ± 0.001 W/m/K and the thermal conductivity (433.55 K, 15081 kPa, Liquid, transient hot wire) was 0.04953 ± 0.001 W/m/K. For the same compound, the thermal conductivity (433.55 K, 22699 kPa, Liquid, transient hot wire) was 0.05365 ± 0.0011 W/m/K, the thermal conductivity (433.55 K, 22714 kPa, Liquid, transient hot wire) was 0.05356 ± 0.0011 W/m/K and the thermal conductivity (433.59 K, 6168 kPa, Liquid, transient hot wire) was 0.04309 ± 0.0009 W/m/K. The thermal conductivity (433.59 K, 6172 kPa, Liquid, transient hot wire) was 0.04309 ± 0.0009 W/m/K, the thermal conductivity (433.6 K, 922 kPa, Gas, transient hot wire) was 0.02237 ± 0.0014 W/m/K and the thermal conductivity (433.69 K, 1141 kPa, Gas, transient hot wire) was 0.02332 ± 0.00077 W/m/K. The thermal conductivity (433.7 K, 374 kPa, Gas, transient hot wire) was 0.02216 ± 0.0014 W/m/K, the thermal conductivity (433.7 K, 375 kPa, Gas, transient hot wire) was 0.02227 ± 0.0014 W/m/K and the thermal conductivity (433.7 K, 1140 kPa, Gas, transient hot wire) was 0.02335 ± 0.00077 W/m/K. For the same compound, the thermal conductivity (433.7 K, 9688 kPa, Liquid, transient hot wire) was 0.04596 ± 0.00096 W/m/K, the thermal conductivity (433.7 K, 9691 kPa, Liquid, transient hot wire) was 0.046 ± 0.00096 W/m/K and the thermal conductivity (433.72 K, 652 kPa, Gas, transient hot wire) was 0.02204 ± 0.0014 W/m/K. It also gave a thermal conductivity (433.74 K, 651 kPa, Gas, transient hot wire) of 0.02205 ± 0.0014 W/m/K, a thermal conductivity (433.76 K, 15088 kPa, Liquid, transient hot wire) of 0.04948 ± 0.001 W/m/K and a thermal conductivity (433.76 K, 15091 kPa, Liquid, transient hot wire) of 0.04951 ± 0.001 W/m/K. The thermal conductivity (433.79 K, 922 kPa, Gas, transient hot wire) was 0.02242 ± 0.0014 W/m/K, the thermal conductivity (433.81 K, 6177 kPa, Liquid, transient hot wire) was 0.04299 ± 0.0009 W/m/K and the thermal conductivity (433.82 K, 6182 kPa, Liquid, transient hot wire) was 0.04309 ± 0.0009 W/m/K. For the same compound, the thermal conductivity (433.87 K, 1141 kPa, Gas, transient hot wire) was 0.02354 ± 0.00078 W/m/K, the thermal conductivity (433.88 K, 1141 kPa, Gas, transient hot wire) was 0.02356 ± 0.00078 W/m/K and the thermal conductivity (433.89 K, 373 kPa, Gas, transient hot wire) was 0.02231 ± 0.0014 W/m/K. The thermal conductivity (433.9 K, 373 kPa, Gas, transient hot wire) was 0.02227 ± 0.0014 W/m/K, the thermal conductivity (433.92 K, 9693 kPa, Liquid, transient hot wire) was 0.04597 ± 0.00096 W/m/K and the thermal conductivity (433.92 K, 9695 kPa, Liquid, transient hot wire) was 0.04596 ± 0.00096 W/m/K. For the same compound, the thermal conductivity (433.94 K, 648 kPa, Gas, transient hot wire) was 0.02211 ± 0.0014 W/m/K, the thermal conductivity (433.94 K, 649 kPa, Gas, transient hot wire) was 0.02204 ± 0.0014 W/m/K and the thermal conductivity (433.96 K, 922 kPa, Gas, transient hot wire) was 0.02254 ± 0.0014 W/m/K. The thermal conductivity (433.98 K, 922 kPa, Gas, transient hot wire) was 0.02253 ± 0.0014 W/m/K, the thermal conductivity (434.12 K, 372 kPa, Gas, transient hot wire) was 0.02229 ± 0.0014 W/m/K and 0.02228 ± 0.0014 W/m/K and the thermal conductivity (434.14 K, 645 kPa, Gas, transient hot wire) was 0.02216 ± 0.0014 W/m/K. For the same compound, the thermal conductivity (434.14 K, 646 kPa, Gas, transient hot wire) was 0.02214 ± 0.0014 W/m/K, the thermal conductivity (434.33 K, 371 kPa, Gas, transient hot wire) was 0.02233 ± 0.0014 W/m/K and the thermal conductivity (434.35 K, 371 kPa, Gas, transient hot wire) was 0.02232 ± 0.0014 W/m/K. It also gave a thermal conductivity (452.91 K, 2283 kPa, Gas, transient hot wire) of 0.03823 ± 0.0024 W/m/K, a thermal conductivity (452.94 K, 2214 kPa, Gas, transient hot wire) of 0.03736 ± 0.0023 W/m/K and a thermal conductivity (452.96 K, 2283 kPa, Gas, transient hot wire) of 0.03736 ± 0.0023 W/m/K. For the same compound, the thermal conductivity (452.98 K, 2213 kPa, Gas, transient hot wire) was 0.03655 ± 0.0022 W/m/K, the thermal conductivity (452.99 K, 2283 kPa, Gas, transient hot wire) was 0.03849 ± 0.0024 W/m/K and the thermal conductivity (452.99 K, 2349 kPa, Gas, transient hot wire) was 0.03688 ± 0.0023 W/m/K. For the same compound, the thermal conductivity (453 K, 2137 kPa, Gas, transient hot wire) was 0.033 ± 0.0021 W/m/K, the thermal conductivity (453 K, 2214 kPa, Gas, transient hot wire) was 0.0364 ± 0.0022 W/m/K and the thermal conductivity (453 K, 2283 kPa, Gas, transient hot wire) was 0.03799 ± 0.0023 W/m/K. For the same compound, the thermal conductivity (453.01 K, 2349 kPa, Gas, transient hot wire) was 0.03694 ± 0.0023 W/m/K, the thermal conductivity (453.01 K, 2431 kPa, Gas, transient hot wire) was 0.0358 ± 0.00089 W/m/K and the thermal conductivity (453.03 K, 2213 kPa, Gas, transient hot wire) was 0.03832 ± 0.0024 W/m/K. For the same compound, the thermal conductivity (453.03 K, 2432 kPa, Gas, transient hot wire) was 0.03591 ± 0.00087 W/m/K, the thermal conductivity (453.04 K, 2137 kPa, Gas, transient hot wire) was 0.03326 ± 0.0021 W/m/K and the thermal conductivity (453.04 K, 2213 kPa, Gas, transient hot wire) was 0.0384 ± 0.0024 W/m/K and 0.03766 ± 0.0023 W/m/K.
